Drawing on BindingDB's records for doi:10.1002/cbic.201200521 (University of Cambridge, 2013), this text covers Kd for four compounds.

This assay has as its target DNA repair and recombination protein RadA (Pyrococcus furiosus (strain ATCC 43587 / DSM 3638 / JCM 8422 / Vc1), UniProt O74036). Description: Thermal Denaturation Assay. The procedure:
The thermal-shift denaturation assay was performed on an iCycler iQ Real Time Detection System (BioRad) in 96-well iCycler iQ PCR plates sealed with optically clear lids.
Consider `Oc1ccc2[nH]ccc2c1`, for which the Kd amounted to 2100 µM.
Turning to `Cc1ccc2[nH]ccc2c1` [Indole, 2], the Kd turned out to be 2100 µM.
For the compound `COC(=O)[C@@H](N)Cc1c[nH]c2ccccc12` [L-Methyl ester tryptophan, 8], the Kd is 570 µM.
On to `c1ccc2[nH]ncc2c1` [Indazole, 5], for which the dissociation constant Kd is 1000 µM.

One may read the Kd as the equilibrium constant for the complex coming apart.
